Here are results for six compounds from paper PMC3258025 (Molecular Cancer Therapeutics, 2010).

For series [1], the system named is lung cancer cell lines (A549, H460, H838, and H1703). Description: MTT cytotoxicity, summary over the four lung cancer cell lines. The series is classed as cell-based, human. Particulars: cimetidine 3 mmol/L, 4-hour exposure.
Series [2] addresses T1, OCT1 (Homo sapiens, UniProt O15245).
T1 sequence (O15245 1-554): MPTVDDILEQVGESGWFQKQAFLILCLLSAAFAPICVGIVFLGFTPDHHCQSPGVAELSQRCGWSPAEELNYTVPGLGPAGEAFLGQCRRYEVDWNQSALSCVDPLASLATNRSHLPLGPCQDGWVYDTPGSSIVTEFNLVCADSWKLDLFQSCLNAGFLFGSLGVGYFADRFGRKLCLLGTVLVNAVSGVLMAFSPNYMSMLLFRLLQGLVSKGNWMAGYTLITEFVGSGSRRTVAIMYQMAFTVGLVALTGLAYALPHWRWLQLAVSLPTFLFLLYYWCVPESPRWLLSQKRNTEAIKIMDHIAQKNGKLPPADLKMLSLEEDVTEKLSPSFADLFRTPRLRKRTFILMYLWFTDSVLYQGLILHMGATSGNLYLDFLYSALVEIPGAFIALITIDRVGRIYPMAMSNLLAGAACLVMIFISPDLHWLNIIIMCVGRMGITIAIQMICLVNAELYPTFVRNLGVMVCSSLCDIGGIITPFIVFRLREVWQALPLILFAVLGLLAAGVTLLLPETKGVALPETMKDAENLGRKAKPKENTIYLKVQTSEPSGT
Conditions: 10 μmol/L, 30 minutes; picoplatin in PB-Cl, monoaqua and diaqua complexes in PB-SO4.

The test system of a further series is HEK293 cells. Description: MTT cytotoxicity of the OCT inhibitors themselves. The series is classed as cell-based, human. Particulars: same experimental conditions as picoplatin MTT assay; data not shown. For orientation: Formazan colour is commonly taken as a measure of viable cells.
For the next series, the target named is T2, OCT3 (Homo sapiens, UniProt O75751).
T2 sequence (O75751 1-556): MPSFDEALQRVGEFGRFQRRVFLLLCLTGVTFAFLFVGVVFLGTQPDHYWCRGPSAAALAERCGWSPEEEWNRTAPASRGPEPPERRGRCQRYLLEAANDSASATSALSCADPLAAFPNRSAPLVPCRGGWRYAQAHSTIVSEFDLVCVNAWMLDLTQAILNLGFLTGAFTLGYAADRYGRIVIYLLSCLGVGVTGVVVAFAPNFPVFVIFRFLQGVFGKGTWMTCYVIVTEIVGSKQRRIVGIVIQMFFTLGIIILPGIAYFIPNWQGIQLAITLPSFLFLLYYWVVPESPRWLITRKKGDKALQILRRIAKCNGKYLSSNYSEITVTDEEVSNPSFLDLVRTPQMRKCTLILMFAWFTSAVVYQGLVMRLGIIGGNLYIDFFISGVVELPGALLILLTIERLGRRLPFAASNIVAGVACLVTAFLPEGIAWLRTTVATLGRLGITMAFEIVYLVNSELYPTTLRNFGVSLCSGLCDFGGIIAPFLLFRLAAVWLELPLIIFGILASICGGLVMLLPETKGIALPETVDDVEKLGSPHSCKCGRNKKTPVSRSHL
Particulars: corticosterone 10 μmol/L, P < 0.001.

Series [3] has as its target T1, OCT1. In words: Platinum-DNA adduct formation in HEK-hOCT1 cells. The series is classed as cell-based. Conditions: disopyramide 150 μmol/L, P < 0.001.
A further series relates to HEK-hOCT1 cells. In words: MTT cytotoxicity assay in OCT1-transfected HEK293 cells. The series is classed as cell-based, human. Particulars: disopyramide 150 μmol/L.

Consider `N.N.O=C([O-])C1(C(=O)[O-])CCC1.[Pt+2]` [Carboplatin], for which the “Change in IC50 values in the presence of cimetidine” value in series [1] is on record as “no significant change in the IC50 values”.
Still for that read-out and setting: the value for `N.N.[Cl][Pt][Cl]` [Cisplatin] was “no significant change in the IC50 values”.
On to `Cc1cccc[n+]1[Pt-2]([NH3+])([OH2+])[Cl]` (centres unmarked) [monoaqua complex of picoplatin, [Pt(NH3)(2-Pic)(H2O)(Cl)]+], for which the “Preference of platinum uptake in OCT1-expressing cells over the corresponding EV cells” value at OCT1 [2] was “equal additional preference in OCT1-expressing cells”.
For `CN/C(=N/CCSCc1nc[nH]c1C)NC#N` [cimetidine], the “Concentration up to which the inhibitor itself did not exhibit any cytotoxicity” value in the series on HEK293 cells is more than 5000 µM.
As for `C[C@]12C[C@H](O)[C@H]3[C@@H](CCC4=CC(=O)CC[C@@]43C)[C@@H]1CC[C@@H]2C(=O)CO` [corticosterone], at OCT3, the “Effect of OCT3 inhibitor on picoplatin-DNA adduct level in HEK-hOCT3 cells” value was “completely inhibited”.
As for `CC(C)N(CCC(C(N)=O)(c1ccccc1)c1ccccn1)C(C)C` (centres unmarked) [disopyramide], the “Concentration up to which the inhibitor itself did not exhibit any cytotoxicity” value with HEK293 cells was more than 400 µM. Moreover, the “Effect of OCT1 inhibitor on platinum-DNA adduct formation in HEK-hOCT1 cells” value at OCT1 [3] is listed as “inhibitable”. Moreover, the “Increase of picoplatin IC50 by coincubation of OCT1 inhibitor” value in the series with HEK-hOCT1 cells is recorded as 5.9 fold.
